Where a name gives a salt, the structure may show the parent alone.
These compounds were tested on Kunming mice (assay: Acetic Acid Twisting Method in mice (antalgic effect)). Settings: Mus musculus, po; 20 mg/kg, gavage administration, mice; read-out: twisting response inhibiting rate (%).
Assay type: in vivo

| Compound | inhibition in vivo at 20 mg/kg |
| --- | --- |
| CC(=O)Oc1ccccc1C(=O)O [Aspirin, reference compound] | 90% |

Same assay, conditions: Mus musculus, sc, read-out: antalgic

| Compound | inhibition in vivo at 20 mg/kg |
| --- | --- |
| COc1ccc(CN2CCC(O)(CC(O)c3ccccc3)CC2)cc1 (stereo not shown) [Compound V-1, N-p-methoxybenzyl-4-(2-hydroxy-2-phenylethyl)-4-piperidinol hydrochloride] | 76% |
| OC(CC1(O)CCN(Cc2ccc3c(c2)OCO3)CC1)c1ccccc1 (stereo not shown) [Compound V-4, N-(benzo[d][1,3]dioxol-5-ylmethyl)-4-(2-hydroxy-2-phenylethyl)-4-piperidinol hydrochloride] | 76% |
| COc1ccccc1N1CCC(O)(CC(O)c2ccccc2)CC1 (stereo not shown) [Compound V-5, N-(2-methoxyphenyl)-4-(2-hydroxy-2-phenylethyl)-4-piperidinol hydrochloride] | 72% |
| OC(CC1(O)CCN(Cc2ccc3c(c2)CCN3)CC1)c1ccccc1 (stereo not shown) [Compound V-6, N-(5-indolinyl)methyl-4-(2-hydroxy-2-phenylethyl)-4-piperidinol hydrochloride] | 69% |
| CC(c1ccc(N2CCOCC2)cc1)N1CCC(O)(CC(O)c2ccccc2)CC1 (stereo not shown) [Compound V-8, N-(1-(4-morpholinophenyl)ethyl)-4-(2-hydroxy-2-phenylethyl)-4-piperidinol hydrochloride] | 77% |
| O=C(CC1(O)CCN(Cc2ccc(Cl)cc2)CC1)c1ccccc1 [III-2, N-p-chlorobenzyl-4-benzoylmethyl-4-piperidinol hydrochloride] | 14% |
| O=C(CC1(O)CCN(Cc2ccccn2)CC1)c1ccccc1 [III-8, N-(2-pyridyl)methyl-4-benzoylmethyl-4-piperidinol hydrochloride] | 77% |
| O=C(CC1(O)CCN(c2ncccn2)CC1)c1ccccc1 [III-9, N-(2-pyrimidinyl)-4-benzoylmethyl-4-piperidinol hydrochloride] | 57% |
| O=C(CC1(O)CCN(Cc2ncccn2)CC1)c1ccccc1 [III-10, N-(2-pyrimidinyl)methyl-4-benzoylmethyl-4-piperidinol hydrochloride] | 51% |
| O=C(CC1(O)CCN(c2ccc3ccccc3n2)CC1)c1ccccc1 [III-11, N-(2-quinolyl)-4-benzoylmethyl-4-piperidinol hydrochloride] | 44% |
| COc1ccccc1N1CCC(O)(CC(=O)c2ccccc2)CC1 [III-12, N-(2′-methoxyphenyl)-4-benzoylmethyl-4-piperidinol hydrochloride] | 21% |
| O=C(CC1(O)CCN(Cc2ccc3c(c2)OCO3)CC1)c1ccccc1 [III-13, N-(benzo[d][1,3]dioxol-5-ylmethyl)-4-benzoylmethyl-4-piperidinol hydrochloride] | 37% |
| COc1cc(CN2CCC(O)(CC(=O)c3ccccc3)CC2)cc(OC)c1OC [III-14, N-(3,4,5-trimethoxybenzyl)-4-benzoylmethyl-4-piperidinol hydrochloride] | 54% |
| CC(c1ccccc1)N1CCC(O)(CC(=O)c2ccccc2)CC1 (stereo not shown) [III-16, N-(1-phenylethyl)-4-benzoylmethyl-4-piperidinol hydrochloride] | 33% |
| C[C@H](c1ccccc1)N1CCC(O)(CC(=O)c2ccccc2)CC1 [III-17, (R)—N-(1-phenylethyl)-4-benzoylmethyl-4-piperidinol hydrochloride] | 66% |
| C[C@@H](c1ccccc1)N1CCC(O)(CC(=O)c2ccccc2)CC1 [III-18, (S)—N-(1-phenylethyl)-4-benzoylmethyl-4-piperidinol hydrochloride] | 84% |
| COc1ccc(C(C)N2CCC(O)(CC(=O)c3ccccc3)CC2)cc1 (stereo not shown) [III-19, N-(1-(4-methoxyphenyl)ethyl)-4-benzoylmethyl-4-piperidinol hydrochloride] | 91% |
| CC(c1ccc(F)cc1)N1CCC(O)(CC(=O)c2ccccc2)CC1 (stereo not shown) [III-20, N-(1-(4-fluorophenyl)ethyl)-4-benzoylmethyl-4-piperidinol hydrochloride] | 37% |
| CC(c1ccc(N)cc1)N1CCC(O)(CC(=O)c2ccccc2)CC1 (stereo not shown) [III-21, N-(1-(4-aminophenyl)ethyl)-4-benzoylmethyl-4-piperidinol hydrochloride] | 57% |
| CC(c1ccc2c(c1)OCO2)N1CCC(O)(CC(=O)c2ccccc2)CC1 (stereo not shown) [III-22, N-(1-(benzo[d][1,3]dioxol-5-yl)ethyl)-4-benzoylmethyl-4-piperidinol hydrochloride] | 43% |
| O=C(CC1(O)CCN(Cc2ccc(N3CCCC3)cc2)CC1)c1ccccc1 [III-24, N-(4-(1-pyrrolidinyl)benzyl)-4-benzoylmethyl-4-piperidinol hydrochloride] | 62% |

| Compound | inhibition in vivo at 20 mg/kg |
| --- | --- |
| CC(c1ccc(N2CCCC2)cc1)N1CCC(O)(CC(=O)c2ccccc2)CC1 (stereo not shown) [III-25, N-(1-(4-(1-pyrrolidinyl)phenyl)ethyl)-4-benzoylmethyl-4-piperidinol hydrochloride] | 80% |
| O=C(CC1(O)CCN(Cc2ccc(N3CCOCC3)cc2)CC1)c1ccccc1 [III-26, N-(4-morpholinobenzyl)-4-benzoylmethyl-4-piperidinol hydrochloride] | 64% |
| CC(c1ccc(N2CCOCC2)cc1)N1CCC(O)(CC(=O)c2ccccc2)CC1 (stereo not shown) [III-27, N-(1-(4-morpholinophenyl)ethyl)-4-benzoylmethyl-4-piperidinol hydrochloride] | 92% |
| O=C(CC1(O)CCN(Cc2ccc(N3CCCCC3)cc2)CC1)c1ccccc1 [III-28, N-(4-(1-piperidinyl)benzyl)-4-benzoylmethyl-4-piperidinol hydrochloride] | 64% |
| O=C1Cc2cc(CN3CCC(O)(CC(=O)c4ccccc4)CC3)ccc2N1 [III-29, N-(2-oxo-5-indolinyl)methyl-4-benzoylmethyl-4-piperidinol hydrochloride] | 45% |
| O=C(CC1(O)CCN(Cc2ccc3c(c2)CCN3)CC1)c1ccccc1 [III-30, N-(5-indolinyl)methyl-4-benzoylmethyl-4-piperidinol hydrochloride] | 42% |
| COc1ccc(C(=O)CC2(O)CCN(Cc3ccccc3)CC2)cc1 [III-32, N-benzyl-4-(p-methoxybenzoylmethyl)-4-piperidinol hydrobromide] | 49% |
| O=C(CC1(O)CCN(Cc2ccccc2)CC1)c1ccc(Cl)cc1 [III-33, N-benzyl-4-(p-chlorobenzoylmethyl)-4-piperidinol hydrobromide] | 26% |
| O=C(CC1(O)CCN(Cc2ccccc2)CC1)c1ccccn1 [III-34, N-benzyl-4-(2-pyridinylformylmethyl)-4-piperidinol hydrobromide] | 75% |
| O=C(CC1(O)CCN(Cc2ccccc2)CC1)c1ccc(N2CCCC2)cc1 [III-35, N-benzyl-4-(4-(pyrrolidinyl)benzoylmethyl)-4-piperidinol hydrochloride] | 64% |
| O=C(CC1(O)CCN(Cc2ccccc2)CC1)c1ccc(N2CCOCC2)cc1 [III-36, N-benzyl-4-((4-morpholinobenzoyl)methyl)-4-piperidinol hydrochloride] | 41% |
| O=C(CC1(O)CCN(Cc2ccccc2)CC1)c1ccc2c(c1)CCN2 [III-37, N-benzyl-4-(2-(5-indolinyl)-2-oxoethyl)-4-piperidinol hydrochloride] | 52% |
| O=C(CC1(O)CCN(Cc2ccccc2)CC1)c1ccc2c(c1)OCO2 [III-38, N-benzyl-4-(2-(benzo[d][1,3]dioxol-5-yl)-2-oxoethyl)-4-piperidinol hydrochloride] | 46% |
| CC(C(=O)c1ccccc1)C1(O)CCN(Cc2ccccc2)CC1 (stereo not shown) [III-39, N-benzyl-4-(1-benzoylethyl)-4-piperidinol hydrochloride] | 56% |
| O=C(CC1(F)CCN(Cc2ccc3c(c2)OCO3)CC1)c1ccccc1 [IX-2, N-(benzo[d][1,3]dioxol-5-ylmethyl)-4-benzoylmethyl-4-fluoropiperidine hydrochloride] | 45% |
| CC(c1ccc(N2CCOCC2)cc1)N1CCC(F)(CC(=O)c2ccccc2)CC1 (stereo not shown) [IX-3, N-(1-(4-morpholinophenyl)ethyl)-4-benzoylmethyl-4-fluoropiperidine hydrochloride] | 64% |
| CC(c1ccc(N2CCCC2)cc1)N1CCC(F)(CC(=O)c2ccccc2)CC1 (stereo not shown) [IX-4, N-(1-(4-(pyrrolidinyl)phenyl)ethyl)-4-benzoylmethyl-4-fluoropiperidine hydrochloride] | 64% |
| COc1ccc(C(C)N2CCC(Cl)(CC(=O)c3ccccc3)CC2)cc1 (stereo not shown) [IX-5, N-(1-(p-methoxyphenyl)ethyl)-4-benzoylmethyl-4-chloropiperidine hydrochloride] | 68% |
| O=C(CC1(Cl)CCN(Cc2ccc3c(c2)OCO3)CC1)c1ccccc1 [IX-6, N-(benzo[d][1,3]dioxol-5-ylmethyl)-4-benzoylmethyl-4-chloropiperidine hydrochloride] | 59% |
| COc1ccc(C(C)N2CCC(CC(=O)c3ccccc3)(OC)CC2)cc1 (stereo not shown) [VIII-2, N-(1-(p-methoxyphenyl)ethyl)-4-benzoylmethyl-4-methoxylpiperidine hydrochloride] | 76% |
| COC1(CC(=O)c2ccccc2)CCN(C(C)c2ccc(N3CCOCC3)cc2)CC1 (stereo not shown) [VIII-3, N-(1-(4-morpholinophenyl)ethyl)-4-benzoylmethyl-4-methoxylpiperidine hydrochloride] | 60% |
